Assay results: patent publication US20210253562A1, “ACYLSUFONAMIDE COMPOUNDS USEFUL AS EP3 RECEPTOR ANTAGONISTS” (Janssen Pharmaceutica NV, priority 2018, published 2021)
Where two headings read alike, the source gives them in different places.

What was measured:
[1] = target: T1, EP3 membrane (EP3 receptor) (Homo sapiens, UniProt P43115); test: [3H]-PGE2 binding; EP3 competition binding (SPA)
T1 construct: purchased Millipore HTS092M
T1 sequence (P43115 1-390): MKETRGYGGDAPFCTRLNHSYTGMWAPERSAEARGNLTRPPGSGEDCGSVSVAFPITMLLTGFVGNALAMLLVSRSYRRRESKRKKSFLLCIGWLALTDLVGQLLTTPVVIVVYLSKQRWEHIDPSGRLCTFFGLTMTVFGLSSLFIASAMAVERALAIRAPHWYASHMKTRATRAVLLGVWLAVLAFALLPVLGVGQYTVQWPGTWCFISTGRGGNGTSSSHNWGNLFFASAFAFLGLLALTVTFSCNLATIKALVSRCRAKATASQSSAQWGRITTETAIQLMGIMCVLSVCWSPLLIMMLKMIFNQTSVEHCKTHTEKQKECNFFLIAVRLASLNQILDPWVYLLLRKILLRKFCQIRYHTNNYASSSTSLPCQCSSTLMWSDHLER
Method in brief: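 Ki derived from one-site nonlinear regression of scintillation proximity counts after 2 h room-temperature equilibration. Serially diluted (1:3) compounds competed against [3H]-PGE2 (2 nM) for EP3 receptor membranes (2 μg/well) in pH 7.4 Tris buffer with 10 mM MgCl2, 1 mM EDTA, 0.1% DMSO.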

[2] = target: T2, CHO cells over-expressing the EP3 receptor (Homo sapiens, UniProt P43115); test: CHO cell cAMP assay; EP3 cAMP antagonist dose response (sulprostone reference), HTRF; assay type: cell-based; details: sulprostone 700 nM (EC80) and FSK 2 μM (EC70); read-out: CHO_cAMP IC50
T2 construct: expressed in transfected cells; host or cells: CHO cells
T2 sequence (P43115 1-390): T1 sequence (P43115 1-390)
Method: Biological Example 2: CHO Cell cAMP Assay
This assay monitored the cAMP generation in CHO cells over-expressing the EP3 receptor in the presence or absence of antagonist stimulated with Forskolin (FSK, CAS No. 66428-89-5) and a known EP3 Agonist (sulprostone, CAS No. 60325-46-4). For detection, a homogeneous competitive immunoassay (Time Resolved Fluorescence Energy Transfer (hTR-FRET)) was used.
Cells (6K cells per well) were plated in Poly-D-Lysine coated plates the day before the assay was to be run and were incubated at 37° C. One hour before the assay the media was removed and replaced with assay buffer (500 mL HBSS (+Ca)+2.5 mL 1M HEPES+6.66 mL 7.5% BSA) (starved at 37° C.). At the start of the assay the buffer was removed from the cells and replaced with buffer containing test compound(s). Sulprostone at an EC80 dose (700 nM) and FSK at an EC70 dose (2 μM) were added to initiate the reaction (37° C. for 30 minutes).
FSK increases cAMP production and sulprostone decreases cAMP production produced by FSK. In this assay, EP3 antagonists will increase the cAMP to the level of cAMP generated by FSK alone.
The reaction was terminated with the addition of cAMP detection reagents (labeled cAMP and labeled cAMP antibody in lysis buffer (HTRF reagent, which utilizes a cryptate-labeled anti-cAMP and d2-labeled cAMP-d2 is an HTRF acceptor fluorophore)). Approximately one hour later the plates were read on an Envision (Perkin Elmer) in HTRF mode. Well results were calculated based on a ratio of counts at 665 nm and 615 nm (data output was a calculation of the ratio: (read @665 nm/read @ 615 nm)*1000. For test compounds dosed serially, well results were converted to nM cAMP using a cAMP standard run on each plate. nM cAMP from a set of wells dosed with test compound(s) were plotted. nM cAMP was calculated for each well from a standard curve located on each plate (P1-12 and P13-24) by first calculating the slope and deriving the intercept(b):
[formula] NScAMP_s tan dard_cruve=m(nM cAMP_s tan dard_curve)+b
NSP, NSN, NSsample were converted to nM cAMP using the following equation: […]
IC50 values were determined from a […] (Hill equation) of a single 11-point compound dosing. A best-fit curve was determined by the minimum sum of squares method plotting cAMP produced vs compound concentration.

Ki [1] [nM]	IC50 [2] [nM]	Ki ([1]; unit nM) [nM]	SMILES
3	8	–	COc1ccc(Cl)cc1S(=O)(=O)NC(=O)NC/C=C1\CCCc2cnn(Cc3ccc(Cl)cc3Cl)c21 [Compound #43, (E)-5-chloro-N-((2-(1-(2,4-dichlorobenzyl)-1,4,5,6-tetrahydro-7H-indazol-7-ylidene)ethyl)carbamoyl)-2-methoxybenzenesulfonamide]
2	8	–	O=C(NS(=O)(=O)c1cc(Cl)c(Cl)s1)OC/C=C1\COCc2cnn(Cc3ccc(Cl)cc3Cl)c21 [Compound #46, (Z)-2-(1-(2,4-dichlorobenzyl)-1,4-dihydropyrano[4,3-c]pyrazol-7(6H)-ylidene)ethyl ((4,5-dichlorothiophen-2-yl)sulfonyl)carbamate]
65	120	–	O=C(NC/C=C1\CCCc2c(C(F)F)nn(Cc3ccc(Cl)cc3Cl)c21)NS(=O)(=O)c1ccc(Cl)cc1 [Compound #47, (E)-4-chloro-N-((2-(1-(2,4-dichlorobenzyl)-3-(difluoromethyl)-1,4,5,6-tetrahydro-7H-indazol-7-ylidene)ethyl)carbamoyl)benzenesulfonamide]
5	14	–	O=C(NC/C=C1\CC(F)(F)Cc2cnn(Cc3ccc(Cl)cc3Cl)c21)NS(=O)(=O)c1ccc(Cl)cc1 [Compound #48, (E)-4-chloro-N-((2-(1-(2,4-dichlorobenzyl)-5,5-difluoro-1,4,5,6-tetrahydro-7H-indazol-7-ylidene)ethyl)carbamoyl)benzenesulfonamide]
29	75	–	O=C(NS(=O)(=O)c1ccc(Cl)cc1)OC/C=C1/c2c(cnn2Cc2ccc(Cl)cc2Cl)CCC1F (stereo not shown) [Compound #50, (Z)-2-(1-(2,4-dichlorobenzyl)-6-fluoro-1,4,5,6-tetrahydro-7H-indazol-7-ylidene)ethyl ((4-chlorophenyl)sulfonyl)carbamate]
> 10000	15700	–	O=C(NS(=O)(=O)c1ccc(Cl)cc1)OC/C=C1\c2c(cnn2Cc2ccc(Cl)cc2Cl)CCC1F (stereo not shown) [Compound #51, (E)-2-(1-(2,4-dichlorobenzyl)-6-fluoro-1,4,5,6-tetrahydro-7H-indazol-7-ylidene)ethyl ((4-chlorophenyl)sulfonyl)carbamate]
63	245	–	COc1ccc(S(=O)(=O)NC(=O)NC/C=C2\COCc3cnn(Cc4ccc(Cl)cc4Cl)c32)cc1 [Compound #62, (Z)—N-((2-(1-(2,4-dichlorobenzyl)-1,4-dihydropyrano[4,3-c]pyrazol-7(6H)-ylidene)ethyl)carbamoyl)-4-methoxybenzenesulfonamide]

Continued, molecule first:

SMILES	Ki [1] [nM]	IC50 [2] [nM]	Ki ([1]; unit nM) [nM]
COc1ccccc1S(=O)(=O)NC(=O)CC/C=C1\CCCc2cnn(Cc3ccc(Cl)cc3Cl)c21 [Compound #44, (E)-4-(1-(2,4-dichlorobenzyl)-1,4,5,6-tetrahydro-7H-indazol-7-ylidene)-N-((2-methoxyphenyl)sulfonyl)butanamide]	95	177	–
O=C(NC/C(F)=C1/CCCc2cnn(Cc3ccc(Cl)cc3Cl)c21)NS(=O)(=O)c1cc(Cl)c(Cl)s1 [Compound #45, (E)-4,5-dichloro-N-((2-(1-(2,4-dichlorobenzyl)-1,4,5,6-tetrahydro-7H-indazol-7-ylidene)-2-fluoroethyl)carbamoyl)thiophene-2-sulfonamide]	1300	6700	–
O=C(NC/C=C1\COCc2cnn(Cc3ccc(Cl)cc3Cl)c21)NS(=O)(=O)c1cc(Cl)c(Cl)s1 [Compound #49, (Z)-4,5-dichloro-N-((2-(1-(2,4-dichlorobenzyl)-1,4-dihydropyrano[4,3-c]pyrazol-7(6H)-ylidene)ethyl)carbamoyl)thiophene-2-sulfonamide]	–	1	0.4
O=C(CC/C=C1\CCCc2cnn(-c3cccc(-c4ccccc4)c3)c21)NS(=O)(=O)c1cc(Cl)c(Cl)s1 [Compound #52, (E)-4-(1-([1,1′-biphenyl]-3-yl)-1,4,5,6-tetrahydro-7H-indazol-7-ylidene)-N-((4,5-dichlorothiophen-2-yl)sulfonyl)butanamide]	1	3	–
O=C(CC/C=C1\CCCc2cnn(-c3cccc(-c4ccc(Cl)cc4Cl)c3)c21)NS(=O)(=O)c1cc(Cl)c(Cl)s1 [Compound #53, (E)-4-(1-(2′,4′-dichloro-[1,1′-biphenyl]-3-yl)-1,4,5,6-tetrahydro-7H-indazol-7-ylidene)-N-((4,5-dichlorothiophen-2-yl)sulfonyl)butanamide]	4	18	–
O=C(NC/C(F)=C1\COCc2cnn(Cc3ccc(Cl)cc3Cl)c21)NS(=O)(=O)c1cc(Cl)c(Cl)s1 [Compound #54, (E)-4,5-dichloro-N-((2-(1-(2,4-dichlorobenzyl)-1,4-dihydropyrano[4,3-c]pyrazol-7(6H)-ylidene)-2-fluoroethyl)carbamoyl)thiophene-2-sulfonamide]	3	24	–
CN(C/C=C1\COCc2cnn(Cc3ccc(Cl)cc3Cl)c21)C(=O)NS(=O)(=O)c1cc(Cl)c(Cl)s1 [Compound #55, (Z)-4,5-dichloro-N-((2-(1-(2,4-dichlorobenzyl)-1,4-dihydropyrano[4,3-c]pyrazol-7(6H)-ylidene)ethyl)(methyl)carbamoyl)thiophene-2-sulfonamide]	3	11	–
O=C(CC/C(F)=C1\CCCc2cnn(Cc3ccc(Cl)cc3Cl)c21)NS(=O)(=O)c1cc(Cl)c(Cl)s1 [Compound #56, (Z)-4-(1-(2,4-dichlorobenzyl)-1,4,5,6-tetrahydro-7H-indazol-7-ylidene)-N-((4,5-dichlorothiophen-2-yl)sulfonyl)-4-fluorobutanamide]	1	4	–
O=C(CC/C=C1\COCc2cnn(Cc3ccc(Cl)cc3Cl)c21)NS(=O)(=O)c1cc(Cl)c(Cl)s1 [Compound #57, (Z)-4-(1-(2,4-dichlorobenzyl)-1,4-dihydropyrano[4,3-c]pyrazol-7(6H)-ylidene)-N-((4,5-dichlorothiophen-2-yl)sulfonyl)butanamide]	1	3	–
COc1ccccc1S(=O)(=O)NC(=O)NC/C=C1\COCc2cnn(Cc3ccc(Cl)cc3Cl)c21 [Compound #58, (Z)—N-((2-(1-(2,4-dichlorobenzyl)-1,4-dihydropyrano[4,3-c]pyrazol-7(6H)-ylidene)ethyl)carbamoyl)-2-methoxybenzenesulfonamide]	110	1300	–
CN(C/C(F)=C1\CCCc2cnn(Cc3ccc(Cl)cc3Cl)c21)C(=O)NS(=O)(=O)c1cc(Cl)c(Cl)s1 [Compound #59, (Z)-4,5-dichloro-N-((2-(1-(2,4-dichlorobenzyl)-1,4,5,6-tetrahydro-7H-indazol-7-ylidene)-2-fluoroethyl)(methyl)carbamoyl)thiophene-2-sulfonamide]	5	12	–
O=C(NC/C(F)=C1/COCc2cnn(Cc3ccc(Cl)cc3Cl)c21)NS(=O)(=O)c1cc(Cl)c(Cl)s1 [Compound #60, (Z)-4,5-dichloro-N-((2-(1-(2,4-dichlorobenzyl)-1,4-dihydropyrano[4,3-c]pyrazol-7(6H)-ylidene)-2-fluoroethyl)carbamoyl)thiophene-2-sulfonamide]	7	4	–
O=C(CC/C(F)=C1\COCc2cnn(Cc3ccc(Cl)cc3Cl)c21)NS(=O)(=O)c1cc(Cl)c(Cl)s1 [Compound #61, (E)-4-(1-(2,4-dichlorobenzyl)-1,4-dihydropyrano[4,3-c]pyrazol-7(6H)-ylidene)-N-((4,5-dichlorothiophen-2-yl)sulfonyl)-4-fluorobutanamide]	7	17	–
